{"source": "paper PMC5426640", "about": "“A novel multifunctional peptide oligomer of bacitracin with possible bioindustrial and therapeutic applications from a Korean food-source Bacillus strain” (PLoS ONE, 2017)", "format_in_all_cases": "cell-based, mouse", "key": {"[1]": {"tested_on": "NF-κB (p65)", "experiment": "Western blot of NF-κB translocation into the nucleus in LPS-stimulated RAW 264.7 cells", "settings": "CSP32 1 h prior to LPS 1 μg/mL", "description": "(§1) Macrophages were incubated with or without LPS in the presence or absence of the AMPs. Cells were harvested, washed twice with ice-cold Tris-HCl-buffered saline (TBS), and resuspended in lysis buffer [100 mM Tris-HCl, 5 mM EDTA, 50 mM NaCl, 50 mM β- glycerophosphate, 50 mM NaF (sodium fluoride), 0.5% NP-40, 1% sodium deoxycholate, 0.1 mM sodium orthovanadate, and 1% phenylmethylsulfonyl fluoride (PMSF)]. The cytosolic fraction was obtained from the supernatant after […] centrifugation at 4°C for 20 min. Samples (20 μg in terms of protein) were separated by sodium dodecyl sulfate-polyacrylamide gel electrophoresis (SDS-PAGE) in a 10% gel and transferred to polyvinylidene difluoride (PVDF) membranes. The membranes were blocked with 5% nonfat milk in TBS with Tween 20 (0.1%) for 2 h and then incubated with primary antibodies specific for ERK, phospho-ERK, JNK, phospho-JNK, p38 MAPK, phospho-p38 MAPK (all them from Cell Signaling Technology), NF-κB, IκB, and phospho-IκB (1:1000; Santa Cruz Biotechnology). […] After three washes with TBS–Tween 20, the membrane was hybridized with an HRP-conjugated secondary antibody for 1 h. […] The immunoreactive proteins were detected by means of a LAS-3000 Luminescent image analyzer (Fuji Photo Film Co., Ltd., Tokyo, Japan)."}, "[2]": {"tested_on": "NO production in LPS-stimulated RAW 264.7 cells", "experiment": "LPS-induced NO production, Griess reaction", "settings": "10, 50, or 100 μg/mL; LPS 1 μg/mL, 24 h; Griess reagent", "description": "NO levels in the culture supernatants were measured by the Griess reaction. Cells (10^6 cells/mL) were seeded in 6-well plates and pretreated with the indicated concentrations of AMP for 30 min before stimulation with 1 μg/mL LPS for 24 h. The sample supernatants were mixed with an equal volume of the Griess reagent (1% sulfanilamide in 5% phosphoric acid and 0.1% naphthyl ethylene diamine dihydrochloride), and then incubated at room temperature for 10 min. The absorbance was measured at 550 nm on a microplate reader (Thermo Fisher Co.). The nitrite concentration was determined using a dilution of sodium nitrite as a standard."}, "[3]": {"tested_on": "IκBα", "experiment": "Western blot of IκBα phosphorylation in LPS-stimulated RAW 264.7 cells", "settings": "CSP32 1 h prior to LPS 1 μg/mL", "description": "as §1"}}, "note": "Where a SMILES comes first, the peptide text is derived from it. Bridges are numbered along the chain shown (N, C = ends). [ ]: non-standard residue; d: D form. The star is where a group is joined. Ileψ(thiazoline)Cys = CC[C@H](C)[C@H](N)C1=N[C@H](C(=O)*)CS1; dOrn = NCCC[C@@H](N)C(=O)O", "data": [{"smiles": "CC[C@H](C)[C@H](N)C1=N[C@H](C(=O)N[C@@H](CC(C)C)C(=O)N[C@H](CCC(=O)O)C(=O)N[C@H](C(=O)N[C@H]2CCCCNC(=O)[C@H](CC(N)=O)NC(=O)[C@@H](CC(=O)O)NC(=O)[C@H](Cc3c[nH]cn3)NC(=O)[C@@H](Cc3ccccc3)NC(=O)[C@H]([C@@H](C)CC)NC(=O)[C@@H](CCCN)NC2=O)[C@@H](C)CC)CS1", "note": "[CSP32] ({Ileψ(thiazoline)Cys}-L[dE]IK[dOrn]I[dF]H[dD]N; lactam 4-C; N-terminus assumed)", "values": [{"measurement": "Effect on LPS-induced changes in the levels of p65 in the nucleus and cytoplasm", "setting": "[1]", "result": "attenuated"}, {"measurement": "Effect on LPS-induced NO production", "setting": "[2]", "result": "attenuated the LPS-induced production of NO to a statistically significant extent"}, {"measurement": "Effect on LPS-increased level of p-IκBα", "setting": "[3]", "result": "attenuated by CSP32 treatment (dose dependently)"}]}]}
